For the test, the system named is HBV DNA in HepG2.2.15 cells. The test can be described thus: HBV in vitro dot-blot hybridization test. In kind it is cell-based, Hepatitis B virus. The following applies: Hepatitis B virus. The method, then:
• 1. Purpose of the test: • The content of HBV DNA in HepG2.2.15 cells was detected by dot-blot hybridization test to evaluate an inhibitory action of the compound on HBV with an EC50 value as an indicator. • 2. Experimental materials: • 2.1 Cell lines: HepG2.2.15 Cells • HepG2.2.15 cell culture media (DMEM/F12, Invitrogen-11330057; 10% serum Invitrogen-10099141; 100 units/mL Penicillin and 10 μg/mL Streptomycin, Invitrogen-15140122; 1% non-essential amino acid, Invitrogen-11140076; 2 mM L-GLUTAMINE, Invitrogen-25030081; 300 µg/ml Geneticin, Invitrogen-10131027 • 2.2 Reagents: • Trypsin (I Invitrogen-25300062) • DPBS (Hyclone-SH30028.01B) • DMSO (Sigma-D2650-100ML) • 96-well cell-culture plate (Corning-3599) • CO2 incubator (HERA-CELL-240) • 20×SSC (Bio-serve Co. Ltd) • Tris-HCl (Aldirch-154563-1KG) • NaOH (Sinopharm 10019718) • NaCl (Sinopharm 10019308) • Hybridization solution (Major BioTech Co. Ltd, IMMUNE GOLD-HYB-500) • DIG Wash and Block Buffer set (Roche-11585762001) • Anti-digoxigenin-AP, Fab fragments from sheep (Roche-11093274910) • 2.3 Materials and Instruments: • Positively-Charged Nylon Membrane (GE-RPN2250B) • Transfer Membrane Instrument (Bio-Rad, 170-6545) • Hybridization Oven (HL-2000 Hybrilinker) • 3. Testing steps and Methods: • 3.1 HepG2.2.15 cells (4×10^4 cells/well) were planted into a 96-well plate, and at 37° C., 5% CO2 cultured overnight. • 3.2 On Day 2, the compounds were diluted in totally 6 concentrations with a dilution gradient of five times. The compounds at different concentrations were added into the culture wells in duplicate. The final concentration of DMSO in the culture media was 1%. 1 μM GLS4 was used as 100% inhibition control; 1% DMSO as 0% inhibition control. • 3.3 On Day 5, replacing with the fresh culture media containing the compound was performed. • 3.4 On Day 8 and Day 9, the culture media in the culture wells was removed, and the cells were harvested for dot-blot hybridization. • The lysate was added into a culture well, and at 37° C. incubating for half an hour to disintegrate cells; the supernatant was obtained by centrifugation and transferred into a new microplate; a denaturation solution was added, after sufficient mixing the denatured sample was transferred and imprinted onto a Nylon membrane, the nucleic acid was fixed onto the membrane by UV cross-linking. • Pre-hybridization: the membrane was incubated at 60° C. in a hybridization solution for 1 hour. • Hybridization: heating the denatured digoxin-labelled HBV DNA probe and incubating at 60° C. overnight. • Membrane Washing: performing high strigency washing twice, low strigency washing for 3 times. • Blocking: incubating the membrane at room temperature in a blocking solution for 30-60 minutes. • Hybridization: diluting the Antibody Solution with the blocking solution, in which the membrane was placed and incubated at room temperature for 30-60 minutes. • Developing: washing the membrane in a Detection Buffer for 5 minutes, followed by adding a developing solution, pressing and exposing. • The photos was saved in tiff format, and a gray value of the dot was quantified with quantity one software. • 3.5 Data Analysis: • 3.5.1 The inhibition percentage was calculated: % Inh.=[1−(sample dot gray value−1 μM GLS4 dot gray value 1)/(DMSO control dot gray value−1 μM GLS4 dot gray value 1)]×100. • 3.5.2 Calculating EC50: the concentration of the compound for 50% inhibition of HBV (EC50) was calculated by using GraphPad Prism Software. • 4.

Setting [1] is: HepG2.2.15, dot-blot hybridization assay, read-out: Concentration for 50% inhibition of HBV (EC50)value.
Where [2] appears, read: HepG2.2.15, summary list of target compounds, Examples 1-165 (same as Table 2), read-out: BIOACTIVITY (inhibitory actions on HBV DNA, EC50).

Like-named read-outs stand apart in the source and are kept apart here.

As to `CCOC(=O)C1=C2CN(C(C)=O)CCN2C(c2nccs2)=NC1c1ccc(F)cc1Br` (racemic) [Example 86], the EC50 reads like this: under setting [1], 500 to 1000 nM; under setting [2], 500 to 1000 nM.
For `CCOC(=O)C1=C2CN(S(C)(=O)=O)CCN2C(c2nccs2)=NC1c1ccc(F)cc1Br` (racemic) [Example 87], the EC50 under setting [1] was in the range of 500 to 1000 nM and the EC50 under setting [2] fell in the range of 500 to 1000 nM.
Consider `CCOC(=O)C1=C2CN(CC(N)=O)CCN2C(c2nccs2)=NC1c1ccc(F)cc1Br` (racemic) [Example 95], for which the EC50 is, setting by setting: under setting [1], 100 to 500 nM; under setting [2], 100 to 500 nM.
With `CCOC(=O)C1=C2CN(C)CCN2C(c2nccs2)=NC1c1ccc(F)cc1Br` (racemic) [Example 96], the EC50 reads like this: under setting [1], 1000 to 5000 nM; under setting [2], 1000 to 5000 nM.
Take `CCOC(=O)C1=C2CN(Cc3ccc(OC)cc3)CCN2C(c2nccs2)=NC1c1ccc(F)cc1Br` (racemic) [Example 97]: the EC50 by setting is: under setting [1], 1000 to 5000 nM; under setting [2], 1000 to 5000 nM.
For the compound `CCOC(=O)C1=C2CNC(=O)CN2C(c2nccs2)=NC1c1ccc(F)cc1Br` (racemic) [Example 104], the EC50 is, setting by setting: under setting [1], 1000 to 5000 nM; under setting [2], 1000 to 5000 nM.
As for `CCOC(=O)C1=C2CN(C)C(=O)CN2C(c2nccs2)=NC1c1ccc(F)cc1Br` (racemic) [Example 105], the EC50 fell in the range of 500 to 1000 nM under setting [1] and 500 to 1000 nM under setting [2].
Take `CCOC(=O)C1=C2CCOC(=O)N2C(c2nccs2)=NC1c1ccc(F)cc1Br` (racemic) [Example 107]: the EC50 under setting [1] is 100 to 500 nM and the EC50 under setting [2] was in the range of 100 to 500 nM.
For `CCOC(=O)C1=C2CCCC(=O)N2C(c2nccs2)=N[C@H]1c1ccc(F)cc1Br` (racemic) [Example 108], the EC50 by setting is: under setting [1], 1000 to 5000 nM; under setting [2], 1000 to 5000 nM.
For the compound `CCOC(=O)C1=C2CCCCN2C(c2nccs2)=NC1c1ccc(F)cc1Cl` (racemic) [Example 109], the EC50 fell in the range of 1000 to 5000 nM under setting [1] and 1000 to 5000 nM under setting [2].
Turning to `CCOC(=O)C1=C2COCCN2C(c2nccs2)=NC1c1ccc(F)cc1Br` (racemic) [Example 110], the EC50 is, setting by setting: under setting [1], 1000 to 5000 nM; under setting [2], 1000 to 5000 nM.
Take `CCOC(=O)C1=C2CCOC(=O)N2C(c2nccs2)=NC1c1ccc(F)cc1Cl` (racemic) [Example 111]: the EC50 fell in the range of 1000 to 5000 nM under setting [1] and 1000 to 5000 nM under setting [2].
Turning to `CCOC(=O)C1=C2CCN2C(c2nccs2)=NC1c1ccc(F)cc1Br` (racemic) [Example 112], the EC50 by setting is: under setting [1], 1000 to 5000 nM; under setting [2], 1000 to 5000 nM.
With `CCOC(=O)C1=C2CCCN2C(c2nccs2)=N[C@H]1c1ccc(F)cc1Br` [Example 5], the EC50 was in the range of 100 to 500 nM under setting [1] and 100 to 500 nM under setting [2].
Turning to `CCOC(=O)C1=C2C[C@@H](CO)CN2C(c2nccs2)=N[C@H]1c1ccc(F)cc1Br` [Example 6], the EC50 reads like this: under setting [1], less than 100 nM; under setting [2], less than 100 nM.
Take `CCOC(=O)C1=C2C[C@H](CO)CN2C(c2nccs2)=N[C@H]1c1ccc(F)cc1Br` [Example 7]: the EC50 under setting [1] lay within 100 to 500 nM and the EC50 under setting [2] lay in the range of 100 to 500 nM.
Take `CCOC(=O)C1=C2C[C@@H](CC(=O)O)CN2C(c2nccs2)=N[C@H]1c1ccc(F)cc1Br` [Example 13]: the EC50 runs as follows: under setting [1], 100 to 500 nM; under setting [2], 100 to 500 nM.
On to `CCOC(=O)C1=C2C[C@H](CC(=O)O)CN2C(c2nccs2)=N[C@H]1c1ccc(F)cc1Br` [Example 14], for which the EC50 runs as follows: under setting [1], 500 to 1000 nM; under setting [2], 500 to 1000 nM.
As for `CCOC(=O)C1=C2C[C@H](CN3CCOCC3)CN2C(c2nccs2)=N[C@H]1c1ccc(F)cc1Br` [Example 15], the EC50 under setting [1] lay in the range of 100 to 500 nM and the EC50 under setting [2] lay within 100 to 500 nM.
As for `CCOC(=O)C1=C2C[C@@H](CN3CCOCC3)CN2C(c2nccs2)=N[C@H]1c1ccc(F)cc1Br` [Example 16], the EC50 under setting [1] was in the range of 1000 to 5000 nM and the EC50 under setting [2] was 1000 to 5000 nM.
With `CCOC(=O)CN(C)C[C@@H]1CC2=C(C(=O)OCC)[C@H](c3ccc(F)cc3Br)N=C(c3nccs3)N2C1` [Example 19], the EC50 is 1000 to 5000 nM under setting [1] and 1000 to 5000 nM under setting [2].
For the compound `CCOC(=O)CN(C)C[C@H]1CC2=C(C(=O)OCC)[C@H](c3ccc(F)cc3Br)N=C(c3nccs3)N2C1` [Example 20], the EC50 is, setting by setting: under setting [1], 1000 to 5000 nM; under setting [2], 1000 to 5000 nM.
On to `CCOC(=O)C1=C2C[C@@H](CN3CCC[C@H]3C(=O)OC)CN2C(c2nccs2)=N[C@H]1c1ccc(F)cc1Br` [Example 21], for which the EC50 under setting [1] is 1000 to 5000 nM and the EC50 under setting [2] was in the range of 1000 to 5000 nM.
Turning to `CCOC(=O)C1=C2C[C@H](CN3CCC[C@H]3C(=O)OC)CN2C(c2nccs2)=N[C@H]1c1ccc(F)cc1Br` [Example 22], the EC50 is 1000 to 5000 nM under setting [1] and 1000 to 5000 nM under setting [2].
For `CCOC(=O)C1=C2C[C@H](C#N)CN2C(c2nccs2)=N[C@H]1c1ccc(F)cc1Cl` [Example 24], the EC50 runs as follows: under setting [1], 500 to 1000 nM; under setting [2], 500 to 1000 nM.
With `CCOC(=O)C1=C2C[C@@H](C#N)CN2C(c2nccs2)=N[C@H]1c1ccc(F)cc1Cl` [Example 25], the EC50 lay within 1000 to 5000 nM under setting [1] and 1000 to 5000 nM under setting [2].
Consider `CCOC(=O)C1=C2C[C@@H](C(N)=O)CN2C(c2nccs2)=N[C@H]1c1ccc(F)cc1Cl` [Example 30], for which the EC50 lay within 100 to 500 nM under setting [1] and 100 to 500 nM under setting [2].
In the case of `CCOC(=O)C1=C2C[C@H](C(N)=O)CN2C(c2nccs2)=N[C@H]1c1ccc(F)cc1Cl` [Example 31], the EC50 runs as follows: under setting [1], 100 to 500 nM; under setting [2], 100 to 500 nM.
As for `CCOC(=O)C1=C2C[C@H](c3nnn[nH]3)CN2C(c2nccs2)=N[C@H]1c1ccc(F)cc1Cl` [Example 32], the EC50 under setting [1] lay within 1000 to 5000 nM and the EC50 under setting [2] lay within 1000 to 5000 nM.
On to `CCOC(=O)C1=C2C[C@@H](c3nnn[nH]3)CN2C(c2nccs2)=N[C@H]1c1ccc(F)cc1Br` [Example 33], for which the EC50 lay in the range of 1000 to 5000 nM under setting [1] and 1000 to 5000 nM under setting [2].
Take `CCOC(=O)C1=C2C[C@H](O)CN2C(c2nccs2)=N[C@H]1c1ccc(F)cc1Cl` [Example 34]: the EC50 by setting is: under setting [1], 100 to 500 nM; under setting [2], 100 to 500 nM.
`CCOC(=O)C1=C2C[C@H](O)CN2C(c2nccs2)=N[C@@H]1c1ccc(F)cc1Cl` [Example 35]: the EC50 under setting [1] lay within 1000 to 5000 nM and the EC50 under setting [2] fell in the range of 1000 to 5000 nM.
Turning to `CCOC(=O)C1=C2C[C@H](N(C)C)CN2C(c2nccs2)=N[C@H]1c1ccc(F)cc1Br` [Example 36], the EC50 by setting is: under setting [1], 500 to 1000 nM; under setting [2], 500 to 1000 nM.
`CCOC(=O)C1=C2C[C@@H](N(C)C)CN2C(c2nccs2)=N[C@H]1c1ccc(F)cc1Br` [Example 37]: the EC50 was in the range of 1000 to 5000 nM under setting [1] and 1000 to 5000 nM under setting [2].
For the compound `CCOC(=O)C1=C2C[C@H](NC(=O)OC(C)(C)C)CN2C(c2nccs2)=N[C@H]1c1ccc(F)cc1Br` [Example 38], the EC50 is, setting by setting: under setting [1], less than 100 nM; under setting [2], less than 100 nM.
On to `CCOC(=O)C1=C2C[C@@H](NC(=O)OC(C)(C)C)CN2C(c2nccs2)=N[C@H]1c1ccc(F)cc1Br` [Example 39], for which the EC50 by setting is: under setting [1], less than 100 nM; under setting [2], less than 100 nM.
For the compound `CCOC(=O)C1=C2C[C@@H](N)CN2C(c2nccs2)=N[C@H]1c1ccc(F)cc1Br` [Example 40], the EC50 fell in the range of 1000 to 5000 nM under setting [1] and 1000 to 5000 nM under setting [2].
Consider `CCOC(=O)C1=C2C[C@H](N)CN2C(c2nccs2)=N[C@H]1c1ccc(F)cc1Br` [Example 41], for which the EC50 by setting is: under setting [1], 1000 to 5000 nM; under setting [2], 1000 to 5000 nM.
Turning to `CCOC(=O)C1=C2C[C@@H](NC(=O)OC)CN2C(c2nccs2)=N[C@H]1c1ccc(F)cc1Br` [Example 43], the EC50 runs as follows: under setting [1], 100 to 500 nM; under setting [2], 100 to 500 nM.

These data come from patent publication US9938301B2, “Dihydropyrimido fused ring derivative as HBV inhibitor” (QILU PHARMACEUTICAL CO., LTD., priority 2014, dated 2018).
